These are literature values, as cited in patent EP4106725B1, “WATER-SOLUBLE SOLID DISPERSION OF QUERCETIN, FORMS THEREOF, A METHOD OF OBTAINING THEREOF, USE OF ALKALINE AGENT, AND A KIT” ("Scientific Industrial Centre "Borshchahivskiy Chemical …, priority 2020, dated 2021).

For data set [1] the following is noted: crystalline dehydrated state and dihydrate.

As to `O=C([O-])[O-].[Na+].[Na+]` [Na2CO3, sodium carbonate], under “acidity constant of the alkaline agent”, the pKa (in general, the pH at which an ionisable group is half protonated) is given as 10.33.

Consider `O=c1c(O)c(-c2ccc(O)c(O)c2)oc2cc(O)cc(O)c12` [quercetin, 2-(3,4-dihydroxyphenyl)-3,5,7-trihydroxy-4H-chromen-4-one], for which the “acidity constant value pKa1” value (hydroxylic group in 4'-position) is on record as 6.62 ± 0.04. Also, the “acidity constant value pKa2” value (hydroxylic group in 7-position) is given as 9.7 ± 0.3. Besides, the solubility in water in data set [1] is given as ~ 1 mg/100 mL.
